Measured values taken from article PMC12736008, “New Dimethylpyridine-3-Carboxamide Derivatives as MMP-13 Inhibitors with Anticancer Activity” (Molecules, 2025).

Assays:
[1] = test system: HT-29 (colorectal adenocarcinoma) cells; experiment: MTT assay, HT-29; format: cell-based, human; settings: for reduction in cancer cell viability / anticancer potential (HT-29): MTT, 24 h, 0.004 mM to 0.5 mM
Source text: (§1) As mentioned earlier, MMP-13 is overexpressed and functionally significant in various cancers, including melanoma and colorectal carcinoma. For instance, high MMP-13 levels have been correlated with metastasis and poor survival in melanoma patients. In colorectal cancer, elevated MMP-13 activity has been observed in tumors compared to normal mucosa, and its expression is associated with a worse prognosis. Based on computational studies, four out of the eleven designed compounds showing the most promising predicted activity against MMP-13 were selected for biological evaluation. For the MTT assay, NHDF cells were used as the healthy reference cell line, while A375 (melanoma) and HT-29 (colorectal adenocarcinoma cancer) cell lines were chosen as cancer models.
(§2) Experiments were conducted using two cancer cell lines and, as a control, a normal human dermal fibroblasts (NHDF; ATCC PCS-201-012). The A375 cell line (human melanoma, ATCC CRL-1619), and HT-29 cell line (human colorectal adenocarcinoma, ATCC HTB-38) were cultured in DMEM (Dulbecco’s Modified Eagle Medium, Institute of Immunology and Experimental Therapy (IITD), Wrocław, Poland) supplemented with 1% antibiotics (10 U/mL penicillin and 10 µg/mL streptomycin, Sigma-Aldrich, St Louis, MO, USA), 1% glutamine (Sigma-Aldrich, St Louis, MO, USA) and 10% fetal bovine serum (FBS, Gibco, Grand Island, NY, USA). For NHDF cultures, α-MEM (α-Minimum Essentials Medium, Institute of Immunology and Experimental Therapy (IITD), Poland) was used with the same supplement combination as for the cancer cell lines. All cells were maintained in a humidified incubator (INCO 105, Memmert GmbH, Schwabach, Germany) at 37 °C with 5% CO2 and 95% humidity. Cells were passaged routinely by trypsinization (twice a week). For the MTT (3-(4,5-simethylthiazol-2,5-diphenyltetrazolinum bromide), Sigma, St. Louis, MO, USA) assay, cells were used after 2–4 passages, when they reached approximately 80% confluence.
(§3) All tested compounds were dissolved in DMSO to obtain stock solutions with a final concentration of 50 mM (3a, 3b, 3e), 40 mM (3f, 3g, 3i, 3j), and 35 mM (3h, 3k). […] In the next step, 10 µL of each stock solution was added to 990 µL of supplemented medium.
(§4) The MTT assay was performed in 96-well plates, with a seeding density of 1 × 10^4 cells per well. All cell lines were incubated for 24 h in their respective media: α-MEM for (NHDF cells) and DMEM for (A375 and HT-29) cells. After incubation, the medium was removed and replaced with fresh medium containing the tested compounds at concentrations ranging from 0.004 mM to 0.5 mM. […] Absorbance was measured spectrophotometrically at a wavelength of 570 nm using a BioTek SYNERGY H1 microplate reader (Agilent, Santa Clara, CA, USA).

[2] = biological target: T1, human serum albumin (HSA) (Homo sapiens, UniProt P02768); experiment: Fluorescence quenching titration of human serum albumin; format: binding; settings: for ΔG^0 / ΔH^0 / ΔS^0: HSA complex formation; for ΔG^0: one value for 297-308 K; for ΔH^0 / ΔS^0: van't Hoff; for KSV·10^4: PBS pH 7.4
T1 construct: purchased Sigma-Aldrich
T1 sequence (P02768 25-609): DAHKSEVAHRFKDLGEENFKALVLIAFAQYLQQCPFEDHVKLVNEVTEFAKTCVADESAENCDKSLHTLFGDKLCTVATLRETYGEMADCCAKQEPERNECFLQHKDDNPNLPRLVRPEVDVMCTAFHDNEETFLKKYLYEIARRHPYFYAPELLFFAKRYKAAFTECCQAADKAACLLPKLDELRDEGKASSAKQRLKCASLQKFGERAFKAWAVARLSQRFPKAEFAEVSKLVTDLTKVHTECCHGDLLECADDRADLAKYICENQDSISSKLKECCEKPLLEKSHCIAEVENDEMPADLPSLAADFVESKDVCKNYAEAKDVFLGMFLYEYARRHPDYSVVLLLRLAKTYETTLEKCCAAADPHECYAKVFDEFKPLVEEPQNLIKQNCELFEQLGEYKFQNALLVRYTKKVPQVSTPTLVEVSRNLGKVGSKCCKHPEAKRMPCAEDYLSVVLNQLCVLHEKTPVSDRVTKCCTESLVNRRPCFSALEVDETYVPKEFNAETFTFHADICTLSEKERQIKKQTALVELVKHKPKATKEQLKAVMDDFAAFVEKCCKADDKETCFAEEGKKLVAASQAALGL
Method: In the human albumin, the amino acid residue Trp214 in subdomain IIA is of particular significance in structural studies. Subdomain IIA is responsible for binding many drugs and endogenous compounds [37]. To investigate the interactions between HSA and the tested compounds, fluorescence spectroscopy was conducted. […] The Stern–Volmer constant with inner filter correction was applied, based on changes in absorbance and in the fluorescence intensity of excited Trp214 residues located in the protein binding pocket:(1) F0/Fcorr=1+kqτQ=1+KSV[Q] (2) Fcorr=Fobs10^(Aex+Aem)/2 where F0 is maximum fluorescence intensities protein without a quencher, Fcorr is the corrected florescence intensities, kq is the quenching rate constant of the molecules, τ is the average lifetime of the molecule (for biomolecules τ = 10^−8 s), [Q] is the concentration of quencher, Ksv is the Stern-Volmer constant, Fobs is the steady-state fluorescence intensity at the maximum wavelength with the quencher, Aex and Aem are the absorbance at excitation and emission wavelengths, respectively. The quenching rate constants (kq) are higher than 2 × 10^10 dm^3 mol^−1 s^−1; therefore, the quenching mechanism is static and supports complex formation.
The binding parameters were evaluated by a double logarithm regression curve by Equation (3):(3) logF0−F/F=logKb[…] where F0 is the maximum fluorescence intensity of a protein without a quencher, F is the maximum fluorescence intensity of the protein after a quencher addition, Kb is the binding constant, [Q] is the molar concentration of the quencher, and n is the binding stoichiometry.
The compounds studied can be arranged in accordance with the value of Kb, the strength of their interaction with HSA. In this ranking, 3d is the highest ranked, followed by 3c, 3b, and 3g in descending order of compatibility. Then, using Equations (4), and van’t Hoff function (5), the thermodynamic parameters of complex formation were determined and collected in Table 5, and Figure 10:(4) logKb=−ΔH^0/RT+[…] (5) ΔG^0=ΔH^0−TΔS^0=−RTlnKb where R is the gas constant (8.314 J mol^−1 K^−1), T is temperature, Kb is the binding constant, ΔH^0 is enthalpy, ΔS^0 is entropy, and ΔG^0 is free energy change.
To perform the UV-Vis and fluorometric titration measurements, all compounds were dissolved in dimethyl sulfoxide (DMSO) at a concentration of 1⸱10^−3 mol/dm^3. A 0.01 mol/dm^3 phosphate-buffered saline (PBS) solution with a pH of 7.4 (Sigma-Aldrich Chemie GmbH, St. Louis, MO, USA) was used to prepare a 1 × 10^−6 mol/dm^3 solution of human serum albumin (HSA) (Sigma-Aldrich Chemie GmbH, St. Louis, MO, USA). The fluorescence study was performed on a Cary Eclipse 500 spectrophotometer (Agilent, Santa Clara, CA, USA). The fluorometric spectra were recorded in a quartz cuvette with a 10 mm path length over an emission range of 280–400 nm, with an excitation wavelength of 280 nm and a PMT voltage of 560 V. The UV-Vis spectra were recorded on a Jasco V-750 spectrophotometer (Jasco, Tokyo, Japan) with the following parameters: a wavelength range of 190–400 nm, a data interval of 0.1 nm, a scan speed of 400 nm/min, and automatic baseline correction. Quartz cuvettes with an optical path length of 10 mm were used. […] The titrations of the protein solution with the studied compounds were performed in 0.5 molar increments, from 0.0 to 2.0 followed by 1.0 increments up to a final molar ratio of 11.0.

[3] = test system: NHDF cells; experiment: MTT assay, NHDF; format: cell-based, human; settings: 24 h, 0.004 mM to 0.5 mM
Source text: as §1, §2, §3, §4

## Cc1cc(C)c(C(=O)NCC(=O)NCc2ccc(Oc3ccccc3)cc2)c(S)n1 [Compound 3b, 4,6-dimethyl-N-{2-[(4-phenoxybenzyl)amino]-2-oxoethyl}-2-sulfanylpyridine-3-carboxamide]
[1]; at a concentration of 0.5 mM
  selectivity ratio HT-29:NHDF: 0.43
[2]
  ΔG^0: -3.176 kcal/mol
  ΔH^0: -96.119 kcal/mol
  ΔS^0: −1282.70 J·mol^−1·K^−1
[2]; T 297 K
  kq·10^12: 1.21 10^12 dm^3·mol^−1·s^−1
  n (binding stoichiometry): 0.89
  KSV·10^4: 1.21 10^4 dm^3·mol^−1
[2]; T 303 K
  kq·10^12: 1.06 10^12 dm^3·mol^−1·s^−1
  n (binding stoichiometry): 0.60
  KSV·10^4: 1.06 10^4 dm^3·mol^−1
[2]; T 308 K
  kq·10^12: 0.86 10^12 dm^3·mol^−1·s^−1
  n (binding stoichiometry): 0.44
  KSV·10^4: 0.86 10^4 dm^3·mol^−1
[3]
  toxicity toward healthy NHDF cells: lowest toxicity toward healthy cells

## Cc1cc(C)c(C(=O)NCC(=O)NCc2ccc(Cl)cc2)c(S)n1 [Compound 3c, N-{2-[(4-chlorobenzyl)amino]-2-oxoethyl}-4,6-dimethyl-2-sulfanylpyridine-3-carboxamide]
[1]
  reduction in cancer cell viability / anticancer potential (HT-29): strongest reduction in cancer cell viability
[2]
  ΔG^0: -4.319 kcal/mol
  ΔH^0: -45.696 kcal/mol
  ΔS^0: −571.09 J·mol^−1·K^−1
[2]; T 297 K
  kq·10^12: 2.69 10^12 dm^3·mol^−1·s^−1
  n (binding stoichiometry): 0.84
  KSV·10^4: 2.69 10^4 dm^3·mol^−1
[2]; T 303 K
  kq·10^12: 2.34 10^12 dm^3·mol^−1·s^−1
  n (binding stoichiometry): 0.74
  KSV·10^4: 2.34 10^4 dm^3·mol^−1
[2]; T 308 K
  kq·10^12: 2.07 10^12 dm^3·mol^−1·s^−1
  n (binding stoichiometry): 0.65
  KSV·10^4: 2.07 10^4 dm^3·mol^−1
[3]
  toxicity toward healthy NHDF cells: highest toxicity toward healthy NHDF

## Cc1cc(C)c(C(=O)NCC(=O)NCc2ccccc2Cl)c(S)n1 [Compound 3d, N-{2-[(2-chlorobenzyl)amino]-2-oxoethyl}-4,6-dimethyl-2-sulfanylpyridine-3-carboxamide]
[1]
  reduction in cancer cell viability / anticancer potential (HT-29): strongest reduction in cancer cell viability
[2]
  ΔG^0: -4.156 kcal/mol
  ΔH^0: -45.471 kcal/mol
  ΔS^0: −570.21 J·mol^−1·K^−1
[2]; T 297 K
  kq·10^12: 2.51 10^12 dm^3·mol^−1·s^−1
  n (binding stoichiometry): 0.82
  KSV·10^4: 2.51 10^4 dm^3·mol^−1
[2]; T 303 K
  kq·10^12: 2.13 10^12 dm^3·mol^−1·s^−1
  n (binding stoichiometry): 0.73
  KSV·10^4: 2.13 10^4 dm^3·mol^−1
[2]; T 308 K
  kq·10^12: 1.88 10^12 dm^3·mol^−1·s^−1
  n (binding stoichiometry): 0.63
  KSV·10^4: 1.88 10^4 dm^3·mol^−1
[3]
  toxicity toward healthy NHDF cells: highest toxicity toward healthy NHDF

## Cc1cc(C)c(C(=O)NCC(=O)NCc2ccccc2)c(S)n1 [Compound 3g, 4,6-dimethyl-N-[2-(benzylamino)-2-oxoethyl]-2-sulfanylpyridine-3-carboxamide]
[1]
  reduction in cancer cell viability / anticancer potential (HT-29): only moderate anticancer potential
[2]
  ΔG^0: -2.12 kcal/mol
  ΔH^0: -44.077 kcal/mol
  ΔS^0: −579.14 J·mol^−1·K^−1
[2]; T 297 K
  kq·10^12: 0.87 10^12 dm^3·mol^−1·s^−1
  n (binding stoichiometry): 0.60
  KSV·10^4: 0.87 10^4 dm^3·mol^−1
[2]; T 303 K
  kq·10^12: 0.72 10^12 dm^3·mol^−1·s^−1
  n (binding stoichiometry): 0.54
  KSV·10^4: 0.72 10^4 dm^3·mol^−1
[2]; T 308 K
  kq·10^12: 0.63 10^12 dm^3·mol^−1·s^−1
  n (binding stoichiometry): 0.42
  KSV·10^4: 0.63 10^4 dm^3·mol^−1
